Source: US10336775B2 (Asceneuron SA, priority 2014, dated 2019)
Where two headings read alike, the source gives them in different places.

Target: His-Tagged hOGA (human O-GlcNAcase) (Homo sapiens (Human), UniProt O60502)
Assay: Human O-GlcNAcase enzyme inhibition assay (Example B01)
Format: biochemical
Settings: for IC50: read-out: OGA IC50; for OGA inhibitor activity (in words): measured according to Example B01
[1] = OGA enzyme inhibition assay, activity range classes defined in μM

Chain of His-Tagged hOGA (human O-GlcNAcase) (O60502 whole entry): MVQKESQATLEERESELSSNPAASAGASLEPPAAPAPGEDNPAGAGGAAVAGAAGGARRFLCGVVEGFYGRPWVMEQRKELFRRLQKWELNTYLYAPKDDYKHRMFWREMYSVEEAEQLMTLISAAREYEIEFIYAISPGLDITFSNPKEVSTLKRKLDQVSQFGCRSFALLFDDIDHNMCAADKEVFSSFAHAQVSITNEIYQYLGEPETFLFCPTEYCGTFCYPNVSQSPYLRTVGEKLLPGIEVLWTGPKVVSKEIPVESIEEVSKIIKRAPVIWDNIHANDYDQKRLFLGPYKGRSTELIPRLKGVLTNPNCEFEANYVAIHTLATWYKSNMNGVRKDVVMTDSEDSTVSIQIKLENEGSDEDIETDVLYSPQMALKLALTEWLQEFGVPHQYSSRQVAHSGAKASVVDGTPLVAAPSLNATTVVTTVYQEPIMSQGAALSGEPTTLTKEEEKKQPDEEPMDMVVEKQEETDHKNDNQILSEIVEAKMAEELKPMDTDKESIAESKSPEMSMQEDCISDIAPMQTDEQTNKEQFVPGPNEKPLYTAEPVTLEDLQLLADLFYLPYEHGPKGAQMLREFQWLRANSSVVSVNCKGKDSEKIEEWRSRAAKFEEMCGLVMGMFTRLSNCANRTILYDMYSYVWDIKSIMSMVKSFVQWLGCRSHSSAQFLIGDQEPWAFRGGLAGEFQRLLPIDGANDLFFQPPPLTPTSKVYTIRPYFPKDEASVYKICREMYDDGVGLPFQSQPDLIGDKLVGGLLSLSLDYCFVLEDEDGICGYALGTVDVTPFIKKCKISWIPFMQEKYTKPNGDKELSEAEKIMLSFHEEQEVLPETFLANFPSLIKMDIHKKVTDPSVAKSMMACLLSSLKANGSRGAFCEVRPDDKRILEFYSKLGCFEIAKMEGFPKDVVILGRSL

Compound	IC50 [1] [µM]	OGA inhibitor activity (in words)	IC50 [µM]
C[C@@H](c1ccc2c(c1)OCO2)N1CCN(c2ccc(C(F)(F)F)cn2)CC1 [Example 166, (S)-1-(1-(benzo[d][1,3]dioxol-5-yl)ethyl)-4-(5-(trifluoromethyl)pyridin-2-yl)piperazine]	0.05 to 0.2		
C[C@@H](c1ccc2c(c1)OCO2)N1CCN(c2nc3c(s2)CNCC3)CC1 [Example 182, (S)-2-(4-(1-(benzo[d][1,3]dioxol-5-yl)ethyl)piperazin-1-yl)-4,5,6,7-tetrahydrothiazolo[5,4-c]pyridine]	< 0.05	very potent OGA inhibitors	
CCOC(=O)c1ccc(N2CCN([C@@H](C)c3ccc4c(c3)OCO4)CC2)nc1 [Example 183, Ethyl (S)-6-(4-(1-(benzo[d][1,3]dioxol-5-yl)ethyl)piperazin-1-yl)nicotinate]	0.05 to 0.2		
CNC(=O)c1ccc(N2CCN([C@@H](C)c3ccc4c(c3)OCO4)CC2)nc1 [Example 186, (S)-6-(4-(1-(benzo[d][1,3]dioxol-5-yl)ethyl)piperazin-1-yl)-N-methylnicotinamide]	< 0.05		
C[C@@H](c1ccc2c(c1)OCO2)N1CCN(c2ccc(C(=O)N(C)C)cn2)CC1 [Example 187, (S)-6-(4-(1-(benzo[d][1,3]dioxol-5-yl)ethyl)piperazin-1-yl)-N,N-dimethylnicotinamide]	< 0.05		
C[C@@H](c1ccc2c(c1)OCO2)N1CCN(c2ncc(C3(O)CCOCC3)cn2)CC1 [Example 188, (S)-4-(2-(4-(1-(benzo[d][1,3]dioxol-5-yl)ethyl)piperazin-1-yl)pyrimidin-5-yl)tetrahydro-2H-pyran-4-ol]	< 0.05		
C[C@@H](c1ccc2c(c1)OCO2)N1CCN(c2ncc(C3(O)CCOC3)cn2)CC1 (stereo partly drawn) [Example 189, 3-(2-(4-((S)-1-(benzo[d][1,3]dioxol-5-yl)ethyl)piperazin-1-yl)pyrimidin-5-yl)tetrahydrofuran-3-ol]	< 0.05		
C[C@@H](c1ccc2c(c1)OCO2)N1CCN(c2ccc(C(C)(C)O)cn2)CC1 [Example 190, (S)-2-(6-(4-(1-(benzo[d][1,3]dioxol-5-yl)ethyl)piperazin-1-yl)pyridin-3-yl)propan-2-ol]	< 0.05		
C[C@@H](c1ccc2c(c1)OCO2)N1CCN(c2ccc(Br)cn2)CC1 [Example 191, (S)-1-(1-(benzo[d][1,3]dioxol-5-yl)ethyl)-4-(5-bromopyridin-2-yl)piperazine]	0.05 to 0.2		
CSc1ccc(N2CCN([C@@H](C)c3ccc4c(c3)OCO4)CC2)nc1 [Example 192, (S)-1-(1-(benzo[d][1,3]dioxol-5-yl)ethyl)-4-(5-(methylthio)pyridin-2-yl)piperazine]	< 0.05		
C[C@@H](c1ccc2c(c1)OCO2)N1CCN(c2nc3c(s2)CN(S(C)(=O)=O)CC3)CC1 [Example 193, (S)-2-(4-(1-(benzo[d][1,3]dioxol-5-yl)ethyl)piperazin-1-yl)-5-(methylsulfonyl)-4,5,6,7-tetrahydrothiazolo[5,4-c]pyridine]	< 0.05		
COc1cnc(N2CCN([C@@H](C)c3ccc4c(c3)OCO4)CC2)nc1 [Example 195, (S)-2-(4-(1-(benzo[d][1,3]dioxol-5-yl)ethyl)piperazin-1-yl)-5-methoxypyrimidine]	< 0.05		
c1cnc(N2CCN(Cc3ccc4c(c3)OCO4)CC2)nc1 [U.S. Pat. No. 3,299,067 (Example 1), reference compound]			0.998
CC(c1ccc(Cl)cc1)N1CCN(c2ccc3ccccc3n2)CC1 (stereo not drawn) [compound 5 of WO 99/21850, reference compound]		not active as OGA inhibitors	
Cc1cc2ccc(C(C)N3CCN(c4ncccc4C(F)(F)F)CC3)cc2[nH]c1=O (stereo not drawn) [compound of example 56 of WO 99/21850, reference compound]		not useful as OGA inhibitors	
COc1ccc(C(C)N2CCN(c3ccc(Br)c(OC)n3)CC2)cc1OC (stereo not drawn) [compound of example 72 of WO 2005/110982, reference compound]		not active as OGA inhibitors	
(2-(4-(1-(benzo[d][1,3]dioxol-5-yl)ethyl)piperazin-1-yl)thiazol-4-yl)methanamine [Example 84]	0.05 to 0.2		
N-(2-(4-(1-(3,4-Dichlorophenyl)ethyl)piperazin-1-yl)thiazol-5-yl)acetamide [Example 87]	1 to 10		
N-((2-(4-(1-(benzo[d][1,3]dioxol-5-yl)ethyl)piperazin-1-yl)thiazol-4-yl)methyl)acetamide [Example 85]	< 0.05		

The remaining lines, values ahead:

IC50 [1] [µM]	OGA inhibitor activity (in words)	IC50 [µM]	Compound
< 0.05			CC(=O)c1cnc(N2CCN([C@@H](C)c3ccc4c(c3)OCO4)CC2)nc1 [Example 167, (S)-1-(2-(4-(1-(benzo[d][1,3]dioxol-5-yl)ethyl)piperazin-1-yl)pyrimidin-5-yl)ethan-1-one]
< 0.05	very potent OGA inhibitors		CC(O)c1cnc(N2CCN([C@@H](C)c3ccc4c(c3)OCO4)CC2)nc1 (stereo partly drawn) [Example 168, 1-(2-(4-((S)-1-(benzo[d][1,3]dioxol-5-yl)ethyl)piperazin-1-yl)pyrimidin-5-yl)ethan-1-ol]
< 0.05			C[C@@H](c1ccc2c(c1)OCO2)N1CCN(c2nnc(NC(=O)CCO)s2)CC1 [Example 171]
< 0.05	very potent OGA inhibitors		C[C@@H](c1ccc2c(c1)OCO2)N1CCN(c2ncc(F)cn2)CC1 [Example 173, (S)-2-(4-(1-(benzo[d][1,3]dioxol-5-yl)ethyl)piperazin-1-yl)-5-fluoropyrimidine]
< 0.05			C[C@@H](c1ccc2c(c1)OCO2)N1CCN(c2ncc(Br)cn2)CC1 [Example 175, (S)-2-(4-(1-(benzo[d][1,3]dioxol-5-yl)ethyl)piperazin-1-yl)-5-bromopyrimidine]
< 0.05	very potent OGA inhibitors		C[C@@H](c1ccc2c(c1)OCO2)N1CCN(c2ncc(C(C)(C)O)cn2)CC1 [Example 176, (S)-2-(2-(4-(1-(benzo[d][1,3]dioxol-5-yl)ethyl)piperazin-1-yl)pyrimidin-5-yl)propan-2-ol]
< 0.05			C[C@@H](c1ccc2c(c1)OCO2)N1CCN(c2ncc(NC(=O)CCO)cn2)CC1 [Example 177, (S)-N-(2-(4-(1-(benzo[d][1,3]dioxol-5-yl)ethyl)piperazin-1-yl)pyrimidin-5-yl)-3-hydroxypropanamide]
< 0.05	very potent OGA inhibitors		C[C@@H](c1ccc2c(c1)OCO2)N1CCN(c2ncc(C3(O)CCCCC3)cn2)CC1 [Example 180, (S)-1-(2-(4-(1-(benzo[d][1,3]dioxol-5-yl)ethyl)piperazin-1-yl)pyrimidin-5-yl)cyclohexan-1-ol]
< 0.05	very potent OGA inhibitors		C[C@@H](c1ccc2c(c1)OCO2)N1CCN(c2ncc(C3(O)CCCC3)cn2)CC1 [Example 181, (S)-1-(2-(4-(1-(benzo[d][1,3]dioxol-5-yl)ethyl)piperazin-1-yl)pyrimidin-5-yl)cyclopentan-1-ol]
< 0.05			CC(=O)N1CCc2nc(N3CCN([C@@H](C)c4ccc5c(c4)OCO5)CC3)sc2C1 [Example 184, (S)-1-(2-(4-(1-(benzo[d][1,3]dioxol-5-yl)ethyl)piperazin-1-yl)-6,7-dihydrothiazolo[5,4-c]pyridin-5(4H)-yl)ethan-1-one]
< 0.05			C[C@@H](c1ccc2c(c1)OCO2)N1CCN(c2ccc(CO)cn2)CC1 [Example 185, (S)-(6-(4-(1-(benzo[d][1,3]dioxol-5-yl)ethyl)piperazin-1-yl)pyridin-3-yl)methanol]
